Results from paper PMC10714400, “Antimicrobial Peptide–Peptoid Hybrids with and without Membrane Disruption” (ACS Infectious Diseases, 2023).
≈ marks a conversion by molar mass, not a printed value. Read-outs that look alike come from different tables or passages of the source. Where a SMILES comes first, the peptide text is derived from it. [ ]: non-standard residue; d: D form. Nlys = NCCCCNCC(=O)O

Key:
A. baumannii ATCC19606 = system: A. baumannii ATCC19606
Procedure, shortened: (§1)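 MTT added (20–30 min, room temperature); MIC read by eye as lowest concentration inhibiting visible growth (yellow). Polymyxin B positive control from 16 μg/mL.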

E. cloacae = system: E. cloacae
Procedure, shortened: (§2)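 MIC taken visually after MTT staining (20–30 min, RT) as the lowest compound concentration preventing growth, i.e. yellow wells. Inoculum ~5 × 10^5 CFU/well in MH broth, 37 °C static for ca. 18 h; polymyxin B control started at 16 μg/mL.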

E. coli W3110 = system: E. coli W3110
Procedure, shortened: as §2

K. pneumoniae NCTC418 = system: K. pneumoniae NCTC418
Procedure, shortened: as §1

K. pneumoniae OXA-48 = system: K. pneumoniae OXA-48
Procedure, shortened: as §2

P. aeruginosa PAO1 = system: P. aeruginosa PAO1
Procedure, shortened: as §2

PA14 2P4 (pmrB) = system: PA14 2P4 (pmrB)
Procedure, shortened: as §2

PA14 4.13 (phoQ) = system: PA14 4.13 (phoQ)
Procedure, shortened: as §2

PA14 4.18 (pmrB) = system: PA14 4.18 (pmrB)
Procedure, shortened: as §2

S. aureus COL (MRSA) = system: S. aureus COL (MRSA)
Procedure, shortened: as §2

[1] = system: ZEM-1A (clinical MDR P. aeruginosa isolate)
Procedure, shortened: as §2

[2] = system: ZEM9A (clinical MDR P. aeruginosa isolate)
Procedure, shortened: as §2

S. aureus Newman = conditions: Newman
Procedure, shortened: as §2

HEK293 cells = assay: Cell viability assay by Alamar blue; conditions: read-out: Toxicity on HEK293 cells; CSV
Procedure, shortened: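 Cells kept at 37 °C in 5% CO2 with 10% FBS plus penicillin/streptomycin, in RPMI-1640 for A549 and high-glucose DMEM for HEK293, then assessed for viability by Alamar blue; values are mean ± SD of three.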

Structure (SMILES): CC(C)C[C@H](NC(=O)[C@H](CC(C)C)NC(=O)[C@H](CC(C)C)NC(=O)[C@H](CCCCN)NC(=O)[C@H](CC(C)C)NC(=O)[C@H](CC(C)C)NC(=O)CN(CCCCN)C(=O)[C@H](CC(C)C)NC(=O)[C@H](CC(C)C)NC(=O)CN(CCCCN)C(=O)CNCCCCN)C(N)=O [EB6, kkLLkLLKLLL] (H-[Nlys][Nlys]LL[Nlys]LLKLLL-NH2)
- MIC A. baumannii ATCC19606, full MH at pH 7.4 (A. baumannii ATCC19606; ATCC19606, 4 h, pH 7.4): 2 ug/mL
- MIC A. baumannii ATCC19606 […] 7.4 (A. baumannii ATCC19606; Table S2, […] MH, pH 7.4): 2 µg/mL (≈ 1.51 µM)
- MIC A. baumannii ATCC19606 […] 8.5 (A. baumannii ATCC19606; Table S2, […] MH, pH 8.5): 2 µg/mL (≈ 1.51 µM)
- MIC A. baumannii ATCC19606 Full MH 7.4 (A. baumannii ATCC19606; Table S2, full MH, pH 7.4): 2 µg/mL (≈ 1.51 µM)
- MIC A. baumannii ATCC19606 Full MH 8.5 (A. baumannii ATCC19606; Table S2, full MH, pH 8.5): 8 µg/mL (≈ 6.05 µM)
- MIC E. cloacae, full MH at pH 7.4 (E. cloacae; 4 h, pH 7.4): 4 ug/mL
- MIC E. cloacae (E. cloacae; Table S3, […] MH at pH 8.5): 4 µg/mL (≈ 3.03 µM)
- MIC E. coli W3110, […] MH at pH 7.4 (E. coli W3110; CSV, […] MH at pH 7.4): 2 ug/mL
- MIC E. coli W3110, […] MH at pH 8.5 (E. coli W3110; CSV, […] MH at pH 8.5): 2 ug/mL
- MIC E. coli W3110, full MH at pH 7.4 (E. coli W3110; CSV, full MH at pH 7.4): 2 ug/mL
- MIC E. coli W3110 […] 7.4 (E. coli W3110; Table S2, […] MH, pH 7.4): 2 µg/mL (≈ 1.51 µM)
- MIC E. coli W3110 […] 8.5 (E. coli W3110; Table S2, […] MH, pH 8.5): 2 µg/mL (≈ 1.51 µM)
- MIC E. coli W3110 Full MH 7.4 (E. coli W3110; Table S2, full MH, pH 7.4): 2 µg/mL (≈ 1.51 µM)
- MIC E. coli W3110 Full MH 8.5 (E. coli W3110; Table S2, full MH, pH 8.5): 8 µg/mL (≈ 6.05 µM)
- MIC E. coli W3110 […] (E. coli W3110; diluted MH ([…] MH, pH 8.5) per Table 1 footnote b, 16–20 h at 37 °C): 2 µg/mL (≈ 1.51 µM)
- MIC K. pneumoniae NCTC418, full MH at pH 7.4 (K. pneumoniae NCTC418; NCTC418, 4 h, pH 7.4): 8 ug/mL
- MIC K. pneumoniae NCTC418, full MH at pH 8.5 (K. pneumoniae NCTC418; NCTC418, 4 h, pH 8.5): 12 ug/mL
- MIC K. pneumoniae NCTC418 Full MH 8.5 (K. pneumoniae NCTC418; NCTC418, 4 h, pH 8.5): 8 to 16 µg/mL
- MIC K. pneumoniae NCTC418 […] 7.4 (K. pneumoniae NCTC418; Table S2, […] MH, pH 7.4): 4 µg/mL (≈ 3.03 µM)
- MIC K. pneumoniae NCTC418 […] 8.5 (K. pneumoniae NCTC418; Table S2, […] MH, pH 8.5): 2 µg/mL (≈ 1.51 µM)
- MIC K. pneumoniae NCTC418 Full MH 7.4 (K. pneumoniae NCTC418; Table S2, full MH, pH 7.4): 8 µg/mL (≈ 6.05 µM)
- MIC K. pneumoniae OXA-48, […] MH at pH 8.5 (K. pneumoniae OXA-48; CSV, […] MH at pH 8.5): 8 ug/mL
- MIC K. pneumoniae OXA-48, full MH at pH 7.4 (K. pneumoniae OXA-48; CSV, full MH at pH 7.4): 8 ug/mL
- MIC K. pneumoniae OXA-48 (K. pneumoniae OXA-48; Table S3, […] MH at pH 8.5): 8 µg/mL (≈ 6.05 µM)
- MIC P. aeruginosa PAO1, full MH at pH 7.4 (P. aeruginosa PAO1; PAO1, 4 h, pH 7.4): 4 ug/mL
- MIC P. aeruginosa PAO1 […] 7.4 (P. aeruginosa PAO1; Table S2, […] MH, pH 7.4): 2 µg/mL (≈ 1.51 µM)
- MIC P. aeruginosa PAO1 […] 8.5 (P. aeruginosa PAO1; Table S2, […] MH, pH 8.5): 4 µg/mL (≈ 3.03 µM)
- MIC P. aeruginosa PAO1 Full MH 7.4 (P. aeruginosa PAO1; Table S2, full MH, pH 7.4): 4 µg/mL (≈ 3.03 µM)
- MIC P. aeruginosa PAO1 Full MH 8.5 (P. aeruginosa PAO1; Table S2, full MH, pH 8.5): 16 µg/mL (≈ 12.1 µM)
- MIC P. aeruginosa PA14 2P4, […] MH at pH 8.5 (PA14 2P4 (pmrB); CSV, […] MH at pH 8.5): 2 ug/mL
- MIC P. aeruginosa PA14 2P4, full MH at pH 7.4 (PA14 2P4 (pmrB); CSV, full MH at pH 7.4): 32 ug/mL
- MIC PA14 2P4 (pmrB) (PA14 2P4 (pmrB); MH pH 7.4, 16–20 h at 37 °C): 32 µg/mL (≈ 24.2 µM)
- MIC P. aeruginosa PA14 2P4 (PA14 2P4 (pmrB); Table S3, […] MH at pH 8.5): 2 µg/mL (≈ 1.51 µM)
- MIC P. aeruginosa PA14 4.13, […] MH at pH 8.5 (PA14 4.13 (phoQ); CSV, […] MH at pH 8.5): 2 ug/mL
- MIC P. aeruginosa PA14 4.13, full MH at pH 7.4 (PA14 4.13 (phoQ); CSV, full MH at pH 7.4): 4 ug/mL
- MIC PA14 4.13 (phoQ) (PA14 4.13 (phoQ); MH pH 7.4, 16–20 h at 37 °C): 4 µg/mL (≈ 3.03 µM)
- MIC P. aeruginosa PA14 4.13 (PA14 4.13 (phoQ); Table S3, […] MH at pH 8.5): 2 µg/mL (≈ 1.51 µM)
- MIC P. aeruginosa PA14 4.18, […] MH at pH 8.5 (PA14 4.18 (pmrB); CSV, […] MH at pH 8.5): 2 ug/mL
- MIC P. aeruginosa PA14 4.18, full MH at pH 7.4 (PA14 4.18 (pmrB); CSV, full MH at pH 7.4): 16 ug/mL
- MIC PA14 4.18 (pmrB) (PA14 4.18 (pmrB); MH pH 7.4, 16–20 h at 37 °C): 16 µg/mL (≈ 12.1 µM)
- MIC P. aeruginosa PA14 4.18 (PA14 4.18 (pmrB); Table S3, […] MH at pH 8.5): 2 µg/mL (≈ 1.51 µM)
- MIC S. aureus COL (MRSA), full MH at pH 7.4 (S. aureus COL (MRSA); COL, 4 h, pH 7.4): 8 ug/mL
- MIC S. aureus COL (MRSA) […] 7.4 (S. aureus COL (MRSA); Table S2, […] MH, pH 7.4): 2 µg/mL (≈ 1.51 µM)
- MIC S. aureus COL (MRSA) […] 8.5 (S. aureus COL (MRSA); Table S2, […] MH, pH 8.5): 2 µg/mL (≈ 1.51 µM)
- MIC S. aureus COL (MRSA) Full MH 7.4 (S. aureus COL (MRSA); Table S2, full MH, pH 7.4): 8 µg/mL (≈ 6.05 µM)
- MIC S. aureus COL (MRSA) Full MH 8.5 (S. aureus COL (MRSA); Table S2, full MH, pH 8.5): 16 µg/mL (≈ 12.1 µM)
- MIC P. aeruginosa ZEM-1A, […] MH at pH 8.5 ([1]; CSV, […] MH at pH 8.5): 3 ug/mL
- MIC P. aeruginosa ZEM-1A, full MH at pH 7.4 ([1]; CSV, full MH at pH 7.4): 2 ug/mL
- MIC ZEM-1A ([1]; MH pH 7.4, 16–20 h at 37 °C): 2 µg/mL (≈ 1.51 µM)
- MIC P. aeruginosa ZEM-1A ([1]; Table S3, […] MH at pH 8.5): 2 to 4 µg/mL
- MIC P. aeruginosa ZEM9A, […] MH at pH 8.5 ([2]; CSV, […] MH at pH 8.5): 2 ug/mL
- MIC P. aeruginosa ZEM9A, full MH at pH 7.4 ([2]; CSV, full MH at pH 7.4): 4 ug/mL
- MIC ZEM9A ([2]; MH pH 7.4, 16–20 h at 37 °C): 4 µg/mL (≈ 3.03 µM)
- MIC P. aeruginosa ZEM9A ([2]; Table S3, […] MH at pH 8.5): 2 µg/mL (≈ 1.51 µM)
- MIC S. aureus Newman, full MH at pH 7.4 (S. aureus Newman; 4 h, pH 7.4): 8 ug/mL
- MIC S. aureus Newman (S. aureus Newman; 4 h, pH 8.5): 2 µg/mL (≈ 1.51 µM)
- MIC S. aureus Newman (S. aureus Newman; pH 7.4): 8 µg/mL (≈ 6.05 µM)
- IC50 (HEK293 cells): 54 ± 1 µM
